Data published in PubChem BioAssay AID192 (DTP/NCI, 2004).
Where “and” joins values, the source holds several entries; their conditions need not be identical. Equal values may be shown once. Inconclusive results and toxic doses are left out. Square brackets hold non-standard residues; d marks the D form. Peptide text beside a SMILES is read from it. * marks the point of attachment. ξ: configuration not given here. ξF = NC(Cc1ccccc1)C(=O)O; ClAc = O=C(CCl)*

System: BDF1 mice, B16 melanoma ip, median survival T/C
Assay: NCI In Vivo Anticancer Drug Screen. Data for tumor model B16 Melanoma (intraperitoneal) in B6D2F1 (BDF1) mice
Settings: endpoint: median survival time, higher = longer survival
Procedure, shortened: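 Values are ratios of treated (T) to vehicle-control (C) measurements of survival or tumor size in tumor-bearing mice.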

[1] = dose: 50.0 mg/kg/injection, schedule: Q04DX003 (ip), vehicle: Klucel (hydroxypropylcellulose) (HPC)
[2] = dose: 100.0 mg/kg/injection, schedule: Q04DX003 (ip), vehicle: Klucel (hydroxypropylcellulose) (HPC)
[3] = dose: 50.0 mg/kg/injection, schedule: Q01DX009 (ip), vehicle: saline with Tween-80
[4] = dose: 100.0 mg/kg/injection, schedule: Q01DX009 (ip), vehicle: saline with Tween-80
[5] = dose: 200.0 mg/kg/injection, schedule: Q01DX009 (ip), vehicle: saline with Tween-80
[6] = dose: 6.25 mg/kg/injection, schedule: Q01DX009 (ip), vehicle: saline with Tween-80
[7] = dose: 12.5 mg/kg/injection, schedule: Q01DX009 (ip), vehicle: saline with Tween-80
[8] = dose: 12.5 mg/kg/injection, schedule: Q01DX009 (ip), vehicle: saline
[9] = dose: 25.0 mg/kg/injection, schedule: Q01DX009 (ip), vehicle: saline
[10] = dose: 50.0 mg/kg/injection, schedule: Q01DX009 (ip), vehicle: saline
[11] = dose: 100.0 mg/kg/injection, schedule: Q01DX009 (ip), vehicle: saline
[12] = dose: 200.0 mg/kg/injection, schedule: Q01DX009 (ip), vehicle: saline
[13] = dose: 25.0 mg/kg/injection, schedule: Q01DX009 (ip), vehicle: saline with Tween-80
[14] = dose: 50.0 mg/kg/injection, schedule: Q04DX003 (ip), vehicle: saline with Tween-80
[15] = dose: 100.0 mg/kg/injection, schedule: Q04DX003 (ip), vehicle: saline with Tween-80
[16] = dose: 50.0 mg/kg/injection, schedule: Q01DX009 (ip), vehicle: Klucel (hydroxypropylcellulose) (HPC)
[17] = dose: 400.0 mg/kg/injection, schedule: Q01DX009 (ip), vehicle: saline with Tween-80

For c1ccc(C(C2=NCCN2)c2ccccc2)cc1, the T/C (dose: 25.0 mg/kg/injection, schedule: Q04DX003 (ip), vehicle: Klucel (hydroxypropylcellulose) (HPC)) was 105 % of control, the T/C [1] was 91 % of control and the T/C [2] was 95 % of control.

For CC(=N\O)/C(C)=N/O.CC(=N\O)/C(C)=N/O.CCCC1CC[N-]CC1.CCCC1CC[N-]CC1.CCCC1CC[N-]CC1.CCCC1CC[N-]CC1.[Cl-].[Cl-].[Cl][Rh][Cl].[Rh+3], the T/C (dose: 0.19 mg/kg/injection, schedule: Q01DX009 (ip), vehicle: saline) was 104 % of control, the T/C (dose: 0.38 mg/kg/injection, schedule: Q01DX009 (ip), vehicle: saline) was 107 % of control and the T/C (dose: 0.75 mg/kg/injection, schedule: Q01DX009 (ip), vehicle: saline) was 104 % of control. The T/C (dose: 1.5 mg/kg/injection, schedule: Q01DX009 (ip), vehicle: saline) was 103 % of control and the T/C (dose: 3.0 mg/kg/injection, schedule: Q01DX009 (ip), vehicle: saline) was 105 % of control.

For O=C(CCl)NCC(=O)NC(Cc1ccccc1)C(=O)O (configuration not stated) (ClAc-Gly-[ξF]-OH), the T/C [3] was 103 % of control, the T/C [4] was 100 % of control and the T/C [5] was 93 % of control.

With CCCCCCCCCCCCCCCCCC(=O)[O][Hg][c]1ccccc1 the T/C [6] was 97 % of control and the T/C [7] was 105 % of control.

With Nc1nc(Cl)c2[nH]cnc2n1 the T/C (dose: 0.09 mg/kg/injection, schedule: Q01DX009 (ip), vehicle: other) was 114 % of control, the T/C (dose: 0.19 mg/kg/injection, schedule: Q01DX009 (ip), vehicle: other) was 113 % of control and the T/C (dose: 0.38 mg/kg/injection, schedule: Q01DX009 (ip), vehicle: other) was 105 % of control. For the same molecule, the T/C (dose: 0.75 mg/kg/injection, schedule: Q01DX009 (ip), vehicle: other) was 88 % of control and 111 % of control, the T/C (dose: 1.5 mg/kg/injection, schedule: Q01DX009 (ip), vehicle: other) was 110 % of control and the T/C (dose: 3.0 mg/kg/injection, schedule: Q01DX009 (ip), vehicle: other) was 101 % of control and 108 % of control. The T/C (dose: 6.0 mg/kg/injection, schedule: Q01DX009 (ip), vehicle: other) was 89 % of control and the T/C (dose: 50.0 mg/kg/injection, schedule: Q01DX009 (ip), vehicle: other) was 93 % of control.

OCCCN1CCCCC1CO (configuration not stated) was tested, and the T/C [8] was 101 % of control, the T/C [9] was 99 % of control and the T/C [10] was 103 % of control. For the same molecule, the T/C [11] was 90 % of control, the T/C [12] was 116 % of control and the T/C (dose: 400.0 mg/kg/injection, schedule: Q01DX009 (ip), vehicle: saline) was 115 % of control.

NC(=S)N/N=C/c1ccc(C(F)(F)F)cn1 was tested, and the T/C (dose: 8.8 mg/kg/injection, schedule: Q01DX009 (ip), vehicle: Klucel (hydroxypropylcellulose) (HPC)) was 106 % of control, the T/C (dose: 13.3 mg/kg/injection, schedule: Q01DX009 (ip), vehicle: Klucel (hydroxypropylcellulose) (HPC)) was 108 % of control and the T/C (dose: 20.0 mg/kg/injection, schedule: Q01DX009 (ip), vehicle: Klucel (hydroxypropylcellulose) (HPC)) was 109 % of control.

In the case of COP12(OCCO1)SC(C(F)(F)F)=C(C(F)(F)F)S2, the T/C [7] is reported as 100 % of control and the T/C [13] is reported as 104 % of control.

COc1ccccc1NC(=O)Nc1cccc(C(C)=O)c1 was tested, and the T/C [4] was 94 % of control and the T/C [5] was 92 % of control.

OC(CCCCl)CC(O)(C(F)(F)F)C(F)(F)F (configuration not stated) was tested, and the T/C [3] was 111 % of control, the T/C [14] was 112 % of control and the T/C [4] was 102 % of control. The T/C [15] was 115 % of control, the T/C [5] was 108 % of control and the T/C (dose: 200.0 mg/kg/injection, schedule: Q04DX003 (ip), vehicle: saline with Tween-80) was 120 % of control.

In the case of CC1CCCN(C)C1 (configuration not stated), the T/C [16] is reported as 117 % of control and the T/C (dose: 100.0 mg/kg/injection, schedule: Q01DX009 (ip), vehicle: Klucel (hydroxypropylcellulose) (HPC)) is reported as 120 % of control.

In the case of COc1cc(N)c2c(c1N)C(=O)c1ccccc1C2=O, the T/C [1] is reported as 100 % of control, the T/C [2] is reported as 103 % of control and the T/C (dose: 200.0 mg/kg/injection, schedule: Q04DX003 (ip), vehicle: Klucel (hydroxypropylcellulose) (HPC)) is reported as 95 % of control.

With Cc1ccc(NC(=O)Nc2ccc(Cl)c(Cl)c2)cc1Cl the T/C (dose: 25.0 mg/kg/injection, schedule: Q01DX009 (ip), vehicle: Klucel (hydroxypropylcellulose) (HPC)) was 96 % of control and the T/C [16] was 105 % of control.

CC1=CCC=C(CNc2ncnc3nc[nH]c23)C1 was tested, and the T/C (dose: 3.13 mg/kg/injection, schedule: Q01DX009 (ip), vehicle: saline with Tween-80) was 102 % of control, the T/C [6] was 102 % of control and the T/C [7] was 90 % of control. The T/C (dose: 12.5 mg/kg/injection, schedule: Q04DX003 (ip), vehicle: saline with Tween-80) was 100 % of control, the T/C (dose: 25.0 mg/kg/injection, schedule: Q04DX003 (ip), vehicle: saline with Tween-80) was 102 % of control and the T/C [3] was 88 % of control. For the same molecule, the T/C [14] was 102 % of control.

In the case of CCN(CC)CCNc1ccc(N=Nc2cnc3ccccc3c2)c2ccccc12, the T/C [13] is reported as 90 % of control and the T/C [3] is reported as 94 % of control.

In the case of C/C=C/c1ccc(OC(C)=O)c(OC)c1, the T/C [4] is reported as 106 % of control, the T/C [5] is reported as 97 % of control and the T/C [17] is reported as 100 % of control.

In the case of Cc1cc(NC(=O)CCc2ccc(N3C(N)=NC(N)=NC3(C)C)cc2)ccc1S(=O)(=O)F, the T/C (dose: 50.0 mg/kg/injection, schedule: Q01DX009 (ip), vehicle: saline sonified) is reported as 118 % of control, the T/C (dose: 100.0 mg/kg/injection, schedule: Q01DX009 (ip), vehicle: saline sonified) is reported as 94 % of control and the T/C (dose: 200.0 mg/kg/injection, schedule: Q01DX009 (ip), vehicle: saline sonified) is reported as 100 % of control.

With CC(=O)NC1CCCCC1 the T/C (dose: 33.0 mg/kg/injection, schedule: Q04DX003 (ip), vehicle: saline with Tween-80) was 100 % of control, the T/C (dose: 75.0 mg/kg/injection, schedule: Q04DX003 (ip), vehicle: saline with Tween-80) was 93 % of control and the T/C [15] was 150 % of control.

With OC(c1ccccc1)C1(c2ccccc2)OCCO1 (configuration not stated) the T/C [4] was 100 % of control, the T/C [5] was 95 % of control and the T/C [17] was 90 % of control.

In the case of CN1CCC(CO)C1 (configuration not stated), the T/C (dose: 6.25 mg/kg/injection, schedule: Q01DX009 (ip), vehicle: water) is reported as 99 % of control, the T/C (dose: 12.5 mg/kg/injection, schedule: Q01DX009 (ip), vehicle: water) is reported as 109 % of control and the T/C (dose: 25.0 mg/kg/injection, schedule: Q01DX009 (ip), vehicle: water) is reported as 108 % of control. The T/C [10] was 100 % of control, the T/C (dose: 50.0 mg/kg/injection, schedule: Q01DX009 (ip), vehicle: water) was 103 % of control and the T/C [11] was 97 % of control. For the same molecule, the T/C [12] was 91 % of control.

CCOC(=O)C(C(=O)OCC)c1cc(NC(=O)c2ccccc2)ccc1NC(=O)c1ccccc1 was tested, and the T/C [4] was 95 % of control, the T/C [5] was 91 % of control and the T/C [17] was 89 % of control.

For O=CNNC=O, the T/C [4] was 86 % of control, the T/C [5] was 95 % of control and the T/C [17] was 90 % of control.

In the case of N#CC1CCCC[N-]1.[NH-]CC[N-]CC[NH-].[Pt+4] (configuration not stated), the T/C (dose: 6.25 mg/kg/injection, schedule: Q01DX009 (ip), vehicle: saline) is reported as 113 % of control, the T/C [8] is reported as 108 % of control and the T/C [9] is reported as 91 % of control.

O=C(O)/C=C/C(=O)Nc1cccc(Oc2ccc([N+](=O)[O-])cc2[N+](=O)[O-])c1 was tested, and the T/C (dose: 150.0 mg/kg/injection, schedule: Q01DX009 (ip), vehicle: Klucel (hydroxypropylcellulose) (HPC)) was 90 % of control and the T/C (dose: 300.0 mg/kg/injection, schedule: Q01DX009 (ip), vehicle: Klucel (hydroxypropylcellulose) (HPC)) was 107 % of control.

COc1ccc2c(Nc3ccc(NS(C)(=O)=O)cc3)c3ccccc3nc2c1 was tested, and the T/C (dose: 1.87 mg/kg/injection, schedule: Q01DX009 (ip), vehicle: saline with Tween-80) was 163 % of control, the T/C (dose: 2.5 mg/kg/injection, schedule: Q01DX009 (ip), vehicle: saline with Tween-80) was 150 % of control and the T/C (dose: 3.75 mg/kg/injection, schedule: Q01DX009 (ip), vehicle: saline with Tween-80) was 163 % of control. The T/C (dose: 5.0 mg/kg/injection, schedule: Q01DX009 (ip), vehicle: saline with Tween-80) was 161 % of control, the T/C (dose: 5.3 mg/kg/injection, schedule: Q01DX009 (ip), vehicle: saline with Tween-80) was 188 % of control and the T/C (dose: 7.5 mg/kg/injection, schedule: Q01DX009 (ip), vehicle: saline with Tween-80) was 193 % of control. For the same molecule, the T/C (dose: 8.0 mg/kg/injection, schedule: Q01DX009 (ip), vehicle: saline with Tween-80) was 188 % of control, the T/C (dose: 12.0 mg/kg/injection, schedule: Q01DX009 (ip), vehicle: saline with Tween-80) was 188 % of control and the T/C [8] was 172 % of control. For the same molecule, the T/C (dose: 50.0 mg/kg/injection, schedule: Q01DX001 (ip), vehicle: saline sonified) was 175 % of control and the T/C (dose: 100.0 mg/kg/injection, schedule: Q01DX001 (ip), vehicle: saline sonified) was 194 % of control.
